Values of other authors, collected in patent US7902399B2, “Fatty acids analogous” (Thia Medica AS, priority 2000, dated 2011).

Conditions: rat

Structure (SMILES): CCCCCCCCCCCCCCSCC(=O)O [TTA]
- metabolite formation in vivo (Δ9-desaturase): a desaturated product of TTA is formed in vivo
